13 compounds from US20260098061A1, “EPHA2-BINDING PENDING PEPTIDE AND COMPOSITION COMPRISING SAME” (PeptiDream Inc., priority 2022, published 2026) can be followed below.

Numbered stars: 1 amine (or outer) side, 2 acyl side, 3 side chain; on linkers, the order of the positions; unused ones are H or OH. Bridge positions count the residues as written; N and C are the ends. Square brackets hold non-standard residues; d marks the D form. Side chains are listed from the residue outwards. Peptide text beside a SMILES is read from it. * marks the point of attachment. NH(1-deoxy-D-glucityl) = OC[C@@H](O)[C@@H](O)[C@H](O)[C@@H](O)CN*; Piperazinyl(4-CH2COOH) = O=C(O)CN1CCN(*)CC1; Trp(1-Me) = Cn1cc(C[C@H](N)C(=O)O)c2ccccc21; NMe3Pal = CN[C@@H](Cc1cccnc1)C(=O)O; NMeF = CN[C@@H](Cc1ccccc1)C(=O)O; Gly(cBu) = N[C@H](C(=O)O)C1CCC1; NMeE = CN[C@@H](CCC(=O)O)C(=O)O; Aad = N[C@@H](CCCC(=O)O)C(=O)O; NMeN = CN[C@@H](CC(N)=O)C(=O)O; Chg = N[C@H](C(=O)O)C1CCCCC1; CO = O=C([*:1])[*:2]

The assay has as its target T1, Recombinant Human EphA2 Fc Protein (Homo sapiens, UniProt P29317).
T1 construct: purchased Elabscience
The assay is described as follows: SPR interaction analysis (Biacore T200), kinetics of peptides against EphA2. It counts as binding. Particulars: Recombinant Human EphA2 Fc Protein captured by Human Antibody Capture kit; single-cycle kinetics; 25° C.; HBS-P+ buffer with 1% DMSO. The method in brief: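 KD derived from ka and kd, fitted on baseline-subtracted sensorgrams from single-cycle kinetics of five peptide dilutions. Running buffer: HBS-P+ (pH 7.4) plus 1% DMSO, 25° C, Biacore T200. Recombinant human EphA2-Fc held on an antibody capture surface.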

`C[C@H]1NC(=O)CSC[C@@H](C(N)=O)NC(=O)[C@H](CC(N)=O)NC(=O)[C@H]([C@@H](C)O)NC(=O)[C@H](Cc2cn(C)c3ccccc23)NC(=O)[C@H](CCCCNC(=O)N2CCN(CC(=O)O)CC2)NC(=O)[C@H](Cc2cn(C)c3ccccc23)NC(=O)[C@H](Cc2ccccc2)N(C)C(=O)[C@H](CCCC(N)=O)NC(=O)[C@H](C2CCC2)NC(=O)[C@H](CC(N)=O)NC(=O)[C@H](Cc2cccnc2)N(C)C1=O` [PDC_EphA2-00010004, da-Me3Py-N-Cbg-Hgn-MeF-W1Me-KCOpipzaa-W1Me-T-N-C-NH2] ({CH2CO}-[dA][NMe3Pal]N[Gly(cBu)][Aad](NH2)[NMeF][Trp(1-Me)]K([CO-Piperazinyl(4-CH2COOH)])[Trp(1-Me)]TNC-NH2; thioether N-12): the dissociation constant Kd (commonly a measure of binding affinity in units of concentration) was less than 1 nM.
As for `C[C@H]1NC(=O)CSC[C@@H](C(N)=O)NC(=O)[C@H](CCCC(N)=O)NC(=O)[C@H]([C@@H](C)O)NC(=O)[C@H](Cc2cn(C)c3ccccc23)NC(=O)[C@H](CCCCNC(=O)N2CCN(CC(=O)O)CC2)NC(=O)[C@H](Cc2cn(C)c3ccccc23)NC(=O)[C@H](Cc2ccccc2)N(C)C(=O)[C@H](CCCC(N)=O)NC(=O)[C@H](C2CCCCC2)NC(=O)[C@H](CC(N)=O)NC(=O)[C@H](Cc2cccnc2)N(C)C1=O` [PDC_EphA2-00010005, da-Me3Py-N-Chg-Hgn-MeF-W1Me-KCOpipzaa-W1Me-T-Hgn-C-NH2] ({CH2CO}-[dA][NMe3Pal]N[Chg][Aad](NH2)[NMeF][Trp(1-Me)]K([CO-Piperazinyl(4-CH2COOH)])[Trp(1-Me)]T[Aad](NH2)C-NH2; thioether N-12), the Kd was less than 1 nM.
Next, `CC(C)C[C@@H]1NC(=O)[C@H](CC(N)=O)NC(=O)[C@H](Cc2cccnc2)N(C)C(=O)[C@@H](C)NC(=O)CSC[C@@H](C(N)=O)NC(=O)[C@H](CCCC(N)=O)NC(=O)[C@H]([C@@H](C)O)NC(=O)[C@H](Cc2cn(C)c3ccccc23)NC(=O)[C@H](CCCCNC(=O)N2CCN(CC(=O)O)CC2)NC(=O)[C@H](Cc2cn(C)c3ccccc23)NC(=O)[C@H](CCC(=O)O)N(C)C(=O)[C@H](CCCC(=O)O)NC1=O` [PDC_EphA2-00010006, da-Me3Py-N-L-Hgl-MeE-W1Me-KCOpipzaa-W1Me-T-Hgn-C-NH2] ({CH2CO}-[dA][NMe3Pal]NL[Aad][NMeE][Trp(1-Me)]K([CO-Piperazinyl(4-CH2COOH)])[Trp(1-Me)]T[Aad](NH2)C-NH2; thioether N-12): less than 1 nM; `C[C@H]1NC(=O)CSC[C@@H](C(N)=O)NC(=O)[C@H](CCCC(N)=O)NC(=O)[C@H]([C@@H](C)O)NC(=O)[C@H](Cc2cn(C)c3ccccc23)NC(=O)[C@H](CCCCNC(=O)N2CCN(CC(=O)O)CC2)NC(=O)[C@H](Cc2cn(C)c3ccccc23)NC(=O)[C@H](CCC(=O)O)N(C)C(=O)[C@H](CCCC(=O)O)NC(=O)[C@H](C2CCC2)NC(=O)[C@H](CC(N)=O)NC(=O)[C@H](Cc2cccnc2)N(C)C1=O` [PDC_EphA2-00010007, da-Me3Py-N-Cbg-Hgl-MeE-W1Me-KCOpipzaa-W1Me-T-Hgn-C-NH2] ({CH2CO}-[dA][NMe3Pal]N[Gly(cBu)][Aad][NMeE][Trp(1-Me)]K([CO-Piperazinyl(4-CH2COOH)])[Trp(1-Me)]T[Aad](NH2)C-NH2; thioether N-12): less than 1 nM; `CC(C)C[C@@H]1NC(=O)[C@H](CC(N)=O)NC(=O)[C@H](Cc2cccnc2)N(C)C(=O)[C@@H](C)NC(=O)CSC[C@@H](C(N)=O)NC(=O)[C@H](CCCC(N)=O)NC(=O)[C@H]([C@@H](C)O)NC(=O)[C@H](Cc2cn(C)c3ccccc23)NC(=O)[C@H](CCCCNC(=O)N2CCN(CC(=O)O)CC2)NC(=O)[C@H](Cc2cn(C)c3ccccc23)NC(=O)[C@H](CCC(=O)O)N(C)C(=O)[C@H](CCCC(N)=O)NC1=O` [PDC_EphA2-00010008, da-Me3Py-N-L-Hgn-MeE-W1Me-KCOpipzaa-W1Me-T-Hgn-C-NH2] ({CH2CO}-[dA][NMe3Pal]NL[Aad](NH2)[NMeE][Trp(1-Me)]K([CO-Piperazinyl(4-CH2COOH)])[Trp(1-Me)]T[Aad](NH2)C-NH2; thioether N-12): less than 1 nM.
Next, `C[C@H]1NC(=O)CSC[C@@H](C(N)=O)NC(=O)[C@H](CCCC(N)=O)NC(=O)[C@H]([C@@H](C)O)NC(=O)[C@H](Cc2cn(C)c3ccccc23)NC(=O)[C@H](CCCCNC(=O)N2CCN(CC(=O)O)CC2)NC(=O)[C@H](Cc2cn(C)c3ccccc23)NC(=O)[C@H](CCC(=O)O)N(C)C(=O)[C@H](CCCC(N)=O)NC(=O)[C@H](C2CCC2)NC(=O)[C@H](CC(N)=O)NC(=O)[C@H](Cc2cccnc2)N(C)C1=O` [PDC_EphA2-00010009, da-Me3Py-N-Cbg-Hgn-MeE-W1Me-KCOpipzaa-W1Me-T-Hgn-C-NH2] ({CH2CO}-[dA][NMe3Pal]N[Gly(cBu)][Aad](NH2)[NMeE][Trp(1-Me)]K([CO-Piperazinyl(4-CH2COOH)])[Trp(1-Me)]T[Aad](NH2)C-NH2; thioether N-12): less than 1 nM; `CC(C)[C@@H]1NC(=O)[C@H](Cc2cn(C)c3ccccc23)NC(=O)[C@H](CC(N)=O)NC(=O)[C@H](CCCC(N)=O)NC(=O)[C@H](C2CCC2)NC(=O)[C@H](CC(N)=O)NC(=O)[C@H](Cc2cccnc2)N(C)C(=O)[C@@H](C)NC(=O)CSC[C@@H](C(N)=O)NC(=O)[C@H](CCCC(N)=O)NC(=O)[C@H]([C@@H](C)O)NC(=O)[C@H](Cc2cn(C)c3ccccc23)NC1=O` [PDC_EphA2-00010010, da-Me3Py-N-Cbg-Hgn-N-W1Me-V-W1Me-T-Hgn-C-NH2] ({CH2CO}-[dA][NMe3Pal]N[Gly(cBu)][Aad](NH2)N[Trp(1-Me)]V[Trp(1-Me)]T[Aad](NH2)C-NH2; thioether N-12): less than 1 nM.
The value for `CC(C)[C@@H]1NC(=O)[C@H](Cc2cn(C)c3ccccc23)NC(=O)[C@H](CC(N)=O)N(C)C(=O)[C@H](CCCC(N)=O)NC(=O)[C@H](C2CCC2)NC(=O)[C@H](CC(N)=O)NC(=O)[C@H](Cc2cccnc2)N(C)C(=O)[C@@H](C)NC(=O)CSC[C@@H](C(N)=O)NC(=O)[C@H](CCCC(N)=O)NC(=O)[C@H]([C@@H](C)O)NC(=O)[C@H](Cc2cn(C)c3ccccc23)NC1=O` [PDC_EphA2-00010011, da-Me3Py-N-Cbg-Hgn-MeN-W1Me-V-W1Me-T-Hgn-C-NH2] ({CH2CO}-[dA][NMe3Pal]N[Gly(cBu)][Aad](NH2)[NMeN][Trp(1-Me)]V[Trp(1-Me)]T[Aad](NH2)C-NH2; thioether N-12) was less than 1 nM.
In the case of `CC(C)[C@@H]1NC(=O)[C@H](Cc2cn(C)c3ccccc23)NC(=O)[C@H](Cc2cccnc2)N(C)C(=O)[C@H](CCCC(N)=O)NC(=O)[C@H](C2CCC2)NC(=O)[C@H](CC(N)=O)NC(=O)[C@H](Cc2cccnc2)N(C)C(=O)[C@@H](C)NC(=O)CSC[C@@H](C(N)=O)NC(=O)[C@H](CCCC(N)=O)NC(=O)[C@H]([C@@H](C)O)NC(=O)[C@H](Cc2cn(C)c3ccccc23)NC1=O` [PDC_EphA2-00010012, da-Me3Py-N-Cbg-Hgn-Me3Py-W1Me-V-W1Me-T-Hgn-C-NH2] ({CH2CO}-[dA][NMe3Pal]N[Gly(cBu)][Aad](NH2)[NMe3Pal][Trp(1-Me)]V[Trp(1-Me)]T[Aad](NH2)C-NH2; thioether N-12), the Kd was less than 1 nM.
Take `CC(C)[C@@H]1NC(=O)[C@H](Cc2cn(C)c3ccccc23)NC(=O)[C@H](CC(N)=O)N(C)C(=O)[C@H](CCCC(N)=O)NC(=O)[C@H](C2CCC2)NC(=O)[C@H](CC(N)=O)NC(=O)[C@H](Cc2ccccc2)N(C)C(=O)[C@@H](C)NC(=O)CSC[C@@H](C(N)=O)NC(=O)[C@H](CCCC(N)=O)NC(=O)[C@H]([C@@H](C)O)NC(=O)[C@H](Cc2cn(C)c3ccccc23)NC1=O` [PDC_EphA2-00013693, da-MeF-N-Cbg-Hgn-MeN-W1Me-V-W1Me-T-Hgn-C-NH2] ({CH2CO}-[dA][NMeF]N[Gly(cBu)][Aad](NH2)[NMeN][Trp(1-Me)]V[Trp(1-Me)]T[Aad](NH2)C-NH2; thioether N-12): the Kd was less than 1 nM.
Consider `C[C@H]1NC(=O)CSC[C@@H](C(N)=O)NC(=O)[C@H](CCCC(N)=O)NC(=O)[C@H]([C@@H](C)O)NC(=O)[C@H](Cc2cn(C)c3ccccc23)NC(=O)[C@H](CCC(=O)NC[C@H](O)[C@@H](O)[C@H](O)[C@H](O)CO)NC(=O)[C@H](Cc2cn(C)c3ccccc23)NC(=O)[C@H](CC(N)=O)N(C)C(=O)[C@H](CCCC(N)=O)NC(=O)[C@H](C2CCC2)NC(=O)[C@H](CC(N)=O)NC(=O)[C@H](Cc2ccccc2)N(C)C1=O` [PDC_EphA2-00013703, da-MeF-N-Cbg-Hgn-MEN-W1Me-Qglucamine-W1Me-T-Hgn-C-NH2] ({CH2CO}-[dA][NMeF]N[Gly(cBu)][Aad](NH2)[NMeN][Trp(1-Me)]E(NH(1-deoxy-D-glucityl))[Trp(1-Me)]T[Aad](NH2)C-NH2; thioether N-12), for which the Kd was less than 1 nM.
As for `C[C@H]1NC(=O)CSC[C@@H](C(N)=O)NC(=O)[C@H](CCCC(N)=O)NC(=O)[C@H]([C@@H](C)O)NC(=O)[C@H](Cc2cn(C)c3ccccc23)NC(=O)[C@H](CCC(=O)NC[C@H](O)[C@@H](O)[C@H](O)[C@H](O)CO)NC(=O)[C@H](Cc2cn(C)c3ccccc23)NC(=O)[C@H](Cc2cccnc2)N(C)C(=O)[C@H](CCCC(N)=O)NC(=O)[C@H](C2CCC2)NC(=O)[C@H](CC(N)=O)NC(=O)[C@H](Cc2ccccc2)N(C)C1=O` [PDC_EphA2-00013704, da-MeF-N-Cbg-Hgn-Me3Py-W1Me-Qglucamine-W1Me-T-Hgn-C-NH2] ({CH2CO}-[dA][NMeF]N[Gly(cBu)][Aad](NH2)[NMe3Pal][Trp(1-Me)]E(NH(1-deoxy-D-glucityl))[Trp(1-Me)]T[Aad](NH2)C-NH2; thioether N-12), the Kd is less than 1 nM.
Take `C[C@H]1NC(=O)CSC[C@@H](C(N)=O)NC(=O)[C@H](CCCC(N)=O)NC(=O)[C@H]([C@@H](C)O)NC(=O)[C@H](Cc2cn(C)c3ccccc23)NC(=O)[C@H](CCC(=O)NC[C@H](O)[C@@H](O)[C@H](O)[C@H](O)CO)NC(=O)[C@H](Cc2cn(C)c3ccccc23)NC(=O)[C@H](Cc2cccnc2)N(C)C(=O)[C@H](CCCC(N)=O)NC(=O)[C@H](C2CCC2)NC(=O)[C@H](CC(N)=O)NC(=O)[C@H](Cc2cccnc2)N(C)C1=O` [PDC_EphA2-00013705, da-Me3Py-N-Cbg-Hgn-Me3Py-W1Me-Qglucamine-W1Me-T-Hgn-C-NH2] ({CH2CO}-[dA][NMe3Pal]N[Gly(cBu)][Aad](NH2)[NMe3Pal][Trp(1-Me)]E(NH(1-deoxy-D-glucityl))[Trp(1-Me)]T[Aad](NH2)C-NH2; thioether N-12): the Kd was less than 1 nM.
